biological target: T1, purified human HDAC6 (Homo sapiens, UniProt Q9UBN7); assay: HDAC6 Enzyme Assay; type: biochemical; conditions: substrate Ac-Arg-Gly-Lys(Ac)-AMC peptide, 1 hour at 30° C.
T1 construct: purchased BPS Bioscience 5006
T1 sequence (Q9UBN7 1-1215): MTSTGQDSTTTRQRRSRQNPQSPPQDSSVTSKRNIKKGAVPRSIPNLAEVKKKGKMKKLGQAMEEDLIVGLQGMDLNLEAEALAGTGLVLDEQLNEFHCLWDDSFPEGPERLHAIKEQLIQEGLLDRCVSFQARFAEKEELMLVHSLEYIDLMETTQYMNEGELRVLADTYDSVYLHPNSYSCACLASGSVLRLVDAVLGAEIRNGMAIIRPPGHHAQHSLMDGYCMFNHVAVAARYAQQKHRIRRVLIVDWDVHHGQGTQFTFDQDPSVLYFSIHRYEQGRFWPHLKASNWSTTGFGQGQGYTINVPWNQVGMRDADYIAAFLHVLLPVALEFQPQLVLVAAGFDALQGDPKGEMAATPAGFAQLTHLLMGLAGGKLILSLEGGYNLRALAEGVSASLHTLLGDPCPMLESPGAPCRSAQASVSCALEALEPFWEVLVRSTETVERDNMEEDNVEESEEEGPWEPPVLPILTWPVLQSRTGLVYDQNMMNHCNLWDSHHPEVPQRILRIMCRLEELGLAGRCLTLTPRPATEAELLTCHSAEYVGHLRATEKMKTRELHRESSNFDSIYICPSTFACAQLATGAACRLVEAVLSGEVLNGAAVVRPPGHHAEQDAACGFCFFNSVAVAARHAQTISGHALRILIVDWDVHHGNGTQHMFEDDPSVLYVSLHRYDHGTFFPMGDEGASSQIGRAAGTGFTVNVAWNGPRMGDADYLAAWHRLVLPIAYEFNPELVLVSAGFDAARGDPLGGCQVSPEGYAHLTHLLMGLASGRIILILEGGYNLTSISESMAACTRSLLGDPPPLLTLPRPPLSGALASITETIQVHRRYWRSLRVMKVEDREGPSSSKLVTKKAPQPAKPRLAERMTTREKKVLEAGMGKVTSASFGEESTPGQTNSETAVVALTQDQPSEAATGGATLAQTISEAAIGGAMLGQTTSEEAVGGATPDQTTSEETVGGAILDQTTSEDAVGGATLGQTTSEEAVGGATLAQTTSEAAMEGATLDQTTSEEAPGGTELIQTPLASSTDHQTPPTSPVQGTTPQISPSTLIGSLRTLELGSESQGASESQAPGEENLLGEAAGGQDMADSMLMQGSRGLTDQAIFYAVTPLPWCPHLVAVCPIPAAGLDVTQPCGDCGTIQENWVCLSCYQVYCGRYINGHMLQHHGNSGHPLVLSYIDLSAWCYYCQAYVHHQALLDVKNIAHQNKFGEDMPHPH
Experimental: To measure the inhibition of HDAC6 activity, purified human HDAC6 (BPS Bioscience; Cat. No. 5006) is incubated with substrate Ac-Arg-Gly-Lys(Ac)-AMC peptide (Bachem Biosciences; Cat. No. I-1925) for 1 hour at 30° C. in the presence of test compounds or vehicle DMSO control. The reaction is stopped with the HDAC inhibitor trichostatin A (Sigma; Cat. No. T8552) and the amount of Arg-Gly-Lys-AMC generated is quantitated by digestion with trypsin (Sigma; Cat. No. T1426) and subsequent measurement of the amount of AMC released using a fluorescent plate reader (Pherastar; BMG Technologies) set at Ex 340 nm and Em 460 nm. Concentration response curves are generated by calculating the fluorescence increase in test compound-treated samples relative to DMSO-treated controls, and enzyme inhibition (IC50) values are determined from those curves.

SMILES | IC50 [nM]
CC(NC(=O)c1cc2ccccc2n1C)c1ncc(C(=O)NO)s1 (stereo not shown) [Compound I-51, N-(1-{5-[(hydroxyamino)carbonyl]-1,3-thiazol-2-yl}ethyl)-1-methyl-1H-indole-2-carboxamide] | < 100
CC(NC(=O)NC1CCCCC1)c1ccc(C(=O)NO)s1 (stereo not shown) [Compound I-24, 5-(1-{[(cyclohexylamino)carbonyl]amino}ethyl)-N-hydroxythiophene-2-carboxamide] | 100 to 500
C[C@@H](NS(=O)(=O)c1ccc(C(F)(F)F)cc1)c1ccc(C(=O)NO)s1 [Compound I-23, N-hydroxy-5-[(1R)-1-({[4-(trifluoromethyl)phenyl]sulfonyl}amino)ethyl]thiophene-2-carboxamide] | 100 to 500
C[C@@H](NC(=O)C12CC3CC(CC(C3)C1)C2)c1ncc(C(=O)NO)s1 [Compound I-172, 2-((1R)-1-{[1-adamantylcarbonyl]amino}ethyl)-N-hydroxy-1,3-thiazole-5-carboxamide] | > 500
CC(NC(=O)c1cccn1C)c1ncc(C(=O)NO)s1 (stereo not shown) [Compound I-52, N-hydroxy-2-(1-{[(1-methyl-1H-pyrrol-2-yl)carbonyl]amino}ethyl)-1,3-thiazole-5-carboxamide] | 100 to 500
C[C@H](NC(=O)c1cccn1C)c1ncc(C(=O)NO)s1 [Compound I-160, N-hydroxy-2-((1S)-1-{[(1-methyl-1H-pyrrol-2-yl)carbonyl]amino}ethyl)-1,3-thiazole-5-carboxamide] | 100 to 500
CC(NC(=O)NC(C)(C)C)c1ccc(C(=O)NO)s1 (stereo not shown) [Compound I-34, 5-(1-{[(tert-butylamino)carbonyl]amino}ethyl)-N-hydroxythiophene-2-carboxamide] | 100 to 500
C[C@@H](NC(=O)c1cc2ccccc2o1)c1ncc(C(=O)NO)s1 [Compound I-165, 2-{(1R)-1-[(1-benzofuran-2-ylcarbonyl)amino]ethyl}-N-hydroxy-1,3-thiazole-5-carboxamide] | < 100
CC(NC(=O)C(C)(C)C)c1ncc(C(=O)NO)s1 (stereo not shown) [Compound I-53, 2-{1-[(2,2-dimethylpropanoyl)amino]ethyl}-N-hydroxy-1,3-thiazole-5-carboxamide] | > 500
CC(NC(=O)NCc1ccccc1)c1ccc(C(=O)NO)s1 (stereo not shown) [Compound I-18, 5-(1-{[(benzylamino)carbonyl]amino}ethyl)-N-hydroxythiophene-2-carboxamide] | < 100
C[C@@H](NC(=O)c1cccn1C)c1ncc(C(=O)NO)s1 [Compound I-174, N-hydroxy-2-((1R)-1-{[(1-methyl-1H-pyrrol-2-yl)carbonyl]amino}ethyl)-1,3-thiazole-5-carboxamide] | 100 to 500
CC(NC(=O)NC(C)c1ccc(C(=O)NO)s1)c1ccccc1 (stereo not shown) [Compound I-28, N-hydroxy-5-[1-({[(1-phenylethyl)amino]carbonyl}amino)ethyl]thiophene-2-carboxamide] | 100 to 500
CC(NC(=O)Nc1ccccc1)c1ccc(C(=O)NO)s1 (stereo not shown) [Compound I-12, 5-{1-[(anilinocarbonyl)amino]ethyl}-N-hydroxythiophene-2-carboxamide] | < 100
CC(NS(=O)(=O)c1cn(C)cn1)c1ccc(C(=O)NO)s1 (stereo not shown) [Compound I-33, N-hydroxy-5-(1-{[(1-methyl-1H-imidazol-4-yl)sulfonyl]amino}ethyl)thiophene-2-carboxamide] | 100 to 500
Cc1nc(-c2ccccn2)sc1C(=O)N[C@H](C)c1cc(C(=O)NO)on1 [Compound I-163, N-hydroxy-3-((1R)-1-{[(4-methyl-2-pyridin-2-yl-1,3-thiazol-5-yl)carbonyl]amino}ethyl)isoxazole-5-carboxamide] | > 500
CC(NC(=O)Nc1ccc(F)cc1)c1ccc(C(=O)NO)s1 (stereo not shown) [Compound I-2, 5-[1-({[(4-fluorophenyl)amino]carbonyl}amino)ethyl]-N-hydroxythiophene-2-carboxamide] | < 100

SMILES | IC50 [nM]
CC(NC(=O)c1ccc(OCc2ccccc2)cc1)c1ncc(C(=O)NO)s1 (stereo not shown) [Compound I-49, 2-(1-{[4-(benzyloxy)benzoyl]amino}ethyl)-N-hydroxy-1,3-thiazole-5-carboxamide] | < 100
C[C@@H](NC(=O)c1cc2ccccc2s1)c1ncc(C(=O)NO)s1 [Compound I-178, 2-{(1R)-1-[(1-benzothien-2-ylcarbonyl)amino]ethyl}-N-hydroxy-1,3-thiazole-5-carboxamide] | < 100
CC(NC(=O)c1cc2cc(Cl)ccc2o1)c1ncc(C(=O)NO)s1 (stereo not shown) [Compound I-50, 2-(1-{[(5-chloro-1-benzofuran-2-yl)carbonyl]amino}ethyl)-N-hydroxy-1,3-thiazole-5-carboxamide] | < 100
CC(NC(=O)Nc1cccc(C(F)(F)F)c1)c1ccc(C(=O)NO)s1 (stereo not shown) [Compound I-3, N-hydroxy-5-{1-[({[3-(trifluoromethyl)phenyl]amino}carbonyl)amino]ethyl}thiophene-2-carboxamide] | < 100
C[C@@H](NC(=O)c1cc2ccccc2o1)c1ccc(C(=O)NO)s1 [Compound I-39, N-((1R)-1-{5-[(hydroxyamino)carbonyl]-2-thienyl}ethyl)-1-benzofuran-2-carboxamide] | < 100
CC(NC(=O)Nc1ccc(C(F)(F)F)cc1)c1ccc(C(=O)NO)s1 (stereo not shown) [Compound I-45, N-hydroxy-5-{1-[({[4-(trifluoromethyl)phenyl]amino}carbonyl)amino]ethyl}thiophene-2-carboxamide] | < 100
C[C@@H](NC(=O)c1ccc(-c2ccccc2)cc1)c1ccc(C(=O)NO)s1 [Compound I-46, 5-{(1R)-1-[(biphenyl-4-ylcarbonyl)amino]ethyl}-N-hydroxythiophene-2-carboxamide] | < 100
Cc1ccc(NC(=O)NC(C)c2ccc(C(=O)NO)s2)cc1C (stereo not shown) [Compound I-38, 5-[1-({[(3,4-dimethylphenyl)amino]carbonyl}amino)ethyl]-N-hydroxythiophene-2-carboxamide] | < 100
Cc1nc(-c2ccccn2)sc1C(=O)N[C@H](C)c1cc(C(=O)NO)cn1C [Compound I-156, N-((1R)-1-{4-[(hydroxyamino)carbonyl]-1-methyl-1H-pyrrol-2-yl}ethyl)-4-methyl-2-pyridin-2-yl-1,3-thiazole-5-carboxamide] | > 500
C[C@H](NC(=O)c1cc2ccccc2s1)c1ccc(C(=O)NO)s1 [Compound I-21, N-((1S)-1-{5-[(hydroxyamino)carbonyl]-2-thienyl}ethyl)-1-benzothiophene-2-carboxamide] | < 100
C[C@@H](NC(=O)c1ccc(-c2ccccc2)cc1)c1cc(C(=O)NO)on1 [Compound I-158, 3-{(1R)-1-[(biphenyl-4-ylcarbonyl)amino]ethyl}-N-hydroxyisoxazole-5-carboxamide] | > 500
C[C@H](NC(=O)c1cc2ccccc2o1)c1ncc(C(=O)NO)s1 [Compound I-159, 2-{(1S)-1-[(1-benzofuran-2-ylcarbonyl)amino]ethyl}-N-hydroxy-1,3-thiazole-5-carboxamide] | < 100
CC(NC(=O)Nc1ccccc1-c1ccccc1)c1ccc(C(=O)NO)s1 (stereo not shown) [Compound I-27, 5-(1-{[(biphenyl-2-ylamino)carbonyl]amino}ethyl)-N-hydroxythiophene-2-carboxamide] | 100 to 500
C[C@H](NC(=O)c1ccc(S(C)(=O)=O)cc1)c1ncc(C(=O)NO)s1 [Compound I-177, N-hydroxy-2-((1S)-1-{[4-(methylsulfonyl)benzoyl]amino}ethyl)-1,3-thiazole-5-carboxamide] | 100 to 500
C[C@@H](NC(=O)c1cccn1C)c1ccc(C(=O)NO)s1 [Compound I-29, N-((1R)-1-{5-[(hydroxyamino)carbonyl]-2-thienyl}ethyl)-1-methyl-1H-pyrrole-2-carboxamide] | < 100

From patent publication US8546588B2, “Substituted hydroxamic acids and uses thereof” (Millennium Pharmaceuticals, Inc., priority 2010, dated 2013)
